Assay results taken from patent publication US10638755B2, “Antimicrobial compositions” (Symrise AG, priority 2013, dated 2020).
Like-named read-outs stand apart in the source and are kept apart here.

Assays:
Staphylococcus aureus = assay: Minimum inhibitory concentration (MIC) according to DIN 58940 and Kull Synergy Index; assay type: cell-based; conditions: for MIC: Staphylococcus aureus
Pseudomonas aeruginosa = assay: as above; assay type: cell-based; conditions: for MIC: Pseudomonas aeruginosa
A. brasiliensis = assay: Colony counts in formulation over 28 days and Kull Synergy Index against A. brasiliensis; assay type: cell-based, Aspergillus brasiliensis
Text: To calculate the synergism between compounds of formula (I) and other antimicrobial actives, the Kull equation^1 2 was used SI=(Cmixture×PA)/CA+(Cmixture×PB)/CB (I) where • SI is the Synergy Index according to Kull^1), 2) • CA is the cell count for substance A • CB is the cell count for substance B • Cmixture is the cell count for the mixture of substances A and B • PA is the proportion of the substance A in the mixture • PB is the proportion of the substance B in the mixture.
Colony counts of <100 were arbitrarily set to 100, in order to allow for synergy calculations with the above equation. The abbreviation “n.a.” means not applicable.

Aspergillus brasiliensis = assay: Minimum inhibitory concentration (MIC) according to DIN 58940 and Kull Synergy Index; assay type: cell-based; conditions: for MIC: Aspergillus brasiliensis
Escherichia coli = assay: as above; assay type: cell-based; conditions: for MIC: Escherichia coli
Candida albicans = assay: as above; assay type: cell-based; conditions: for MIC: Candida albicans
mold = conditions: moist alfalfa hay; Agronomy Journal 1955; cited from earlier work
[1] = test system: subcuteaneous inflammation; conditions: administered intraperitoneally; Il Farmaco 2000; cited from earlier work
[2] = chemical in vitro assay; constituents of Tagetes mendocina; cited from earlier work
[3] = day 0, 1.0% (total) in formulation
[4] = day 2, 1.0% (total) in formulation
[5] = day 7, 1.0% (total) in formulation
[6] = day 14, 1.0% (total) in formulation
[7] = day 28, 1.0% (total) in formulation

Which MIC (Staphylococcus aureus; DIN 58940) does the source give for `CCCCC(O)CO` (stereo not drawn) [HD, 1,2-Hexanediol] here?
Its MIC is 20000 µg/mL.

And the MIC (Pseudomonas aeruginosa; DIN 58940)?
Its MIC is 10000 µg/mL.

And the Colony counts (A. brasiliensis; day 0, 3.0% in formulation)?
The Colony counts was 305.000 cfu/g formulation.

And the Relative colony counts (A. brasiliensis; day 0, 3.0% in formulation)?
Its Relative colony counts is 1.0000.

What about the Colony counts (A. brasiliensis; day 2, 3.0% in formulation) of the same compound?
The Colony counts was 306.000 cfu/g formulation.

What about the Relative colony counts (A. brasiliensis; day 2, 3.0% in formulation) of the same compound?
The Relative colony counts was 1.0033.

What about the Colony counts (A. brasiliensis; day 7, 3.0% in formulation) of the same compound?
The Colony counts was 266.000 cfu/g formulation.

What about the Relative colony counts (A. brasiliensis; day 7, 3.0% in formulation) of the same compound?
The Relative colony counts was 0.8721.

What about the Colony counts (A. brasiliensis; day 14, 3.0% in formulation) of the same compound?
The Colony counts was 96.000 cfu/g formulation.

What about the Relative colony counts (A. brasiliensis; day 14, 3.0% in formulation) of the same compound?
The Relative colony counts was 0.3148.

And the Colony counts (A. brasiliensis; day 28, 3.0% in formulation)?
The Colony counts was under 100 cfu/g formulation.

What about the Relative colony counts (A. brasiliensis; day 28, 3.0% in formulation) of the same compound?
The Relative colony counts was 0.0003.

What about the MIC (Aspergillus brasiliensis; DIN 58940) of the same compound?
The MIC was 10000 µg/mL.

And the MIC (Escherichia coli; DIN 58940)?
The MIC was 10000 µg/mL.

And the MIC (Candida albicans; DIN 58940)?
The MIC was 20000 µg/mL.

Which MIC (Staphylococcus aureus; DIN 58940) does the source give for `CC(=O)c1ccc(O)cc1` [4HAP, 4-hydroxyacetophenone] here?
The MIC was 6000 µg/mL.

What about the “prevention of mold growth” value (mold) of the same compound?
The value was “not prevent mold growth”.

What about the MIC (Pseudomonas aeruginosa; DIN 58940) of the same compound?
Its MIC is 4000 µg/mL.

And the anti-inflammatory activity [1]?
Its anti-inflammatory activity is “reducing subcuteaneous inflammation”.

And the antioxidant activity [2]?
The antioxidant activity was “one of the active constituents”.

What about the Colony counts (A. brasiliensis; [3]) of the same compound?
The Colony counts was 300.000 cfu/g formulation.

And the Relative colony counts (A. brasiliensis; [3])?
Its Relative colony counts is 1.0000.

What about the Colony counts (A. brasiliensis; [4]) of the same compound?
Its Colony counts is 56.000 cfu/g formulation.

And the Relative colony counts (A. brasiliensis; [4])?
Its Relative colony counts is 0.1867.

And the Colony counts (A. brasiliensis; [5])?
Its Colony counts is 1.900 cfu/g formulation.

And the Relative colony counts (A. brasiliensis; [5])?
Its Relative colony counts is 0.0063.

And the Colony counts (A. brasiliensis; [6])?
The Colony counts was 1.900 cfu/g formulation.

What about the Relative colony counts (A. brasiliensis; [6]) of the same compound?
The Relative colony counts was 0.0063.

And the Colony counts (A. brasiliensis; [7])?
Its Colony counts is under 100 cfu/g formulation.

And the Relative colony counts (A. brasiliensis; [7])?
Its Relative colony counts is 0.0003.

And the MIC (Aspergillus brasiliensis; DIN 58940)?
Its MIC is 4000 µg/mL.

What about the MIC (Escherichia coli; DIN 58940) of the same compound?
Its MIC is 4000 µg/mL.

What about the MIC (Candida albicans; DIN 58940) of the same compound?
Its MIC is 6000 µg/mL.

What does the source list for `OCCCO` [1,3-Propanediol]?
MIC values Staphylococcus aureus (Staphylococcus aureus; DIN 58940): 125000 ppm; MIC values Pseudomonas aeruginosa (Pseudomonas aeruginosa; DIN 58940): 100000 ppm; MIC values Aspergillus brasiliensis (Aspergillus brasiliensis; DIN 58940): 150000 ppm; MIC values Escherichia coli (Escherichia coli; DIN 58940): 100000 ppm; MIC values Candida albicans (Candida albicans; DIN 58940): 100000 ppm

With `CCCCC(CC)COCC(O)CO` (stereo not drawn) [EHG, ethylhexyl glycerin] as the compound, how does the “MIC values Staphylococcus aureus” value (Staphylococcus aureus) read?
The value was 2000 ppm.

What about the “MIC values Pseudomonas aeruginosa” value (Pseudomonas aeruginosa) of the same compound?
Its value is over 20000 ppm.

And the Colony counts (A. brasiliensis; [3])?
The Colony counts was 315.000 cfu/g formulation.

And the Relative colony counts (A. brasiliensis; [3])?
The Relative colony counts was 0.5048.

What about the Colony counts (A. brasiliensis; [4]) of the same compound?
The Colony counts was 159.000 cfu/g formulation.

What about the Relative colony counts (A. brasiliensis; [4]) of the same compound?
Its Relative colony counts is 0.4762.

What about the Colony counts (A. brasiliensis; [5]) of the same compound?
Its Colony counts is 150.000 cfu/g formulation.

What about the Relative colony counts (A. brasiliensis; [5]) of the same compound?
Its Relative colony counts is 0.9635.

And the Colony counts (A. brasiliensis; [6])?
The Colony counts was 304.000 cfu/g formulation.

And the Relative colony counts (A. brasiliensis; [6])?
Its Relative colony counts is 0.9635.

And the Colony counts (A. brasiliensis; [7])?
Its Colony counts is 304.000 cfu/g formulation.

What about the Relative colony counts (A. brasiliensis; [7]) of the same compound?
Its Relative colony counts is 0.5048.

And the “MIC values Aspergillus brasiliensis” value (Aspergillus brasiliensis)?
Its value is 2000 ppm.

And the “MIC values Escherichia coli” value (Escherichia coli)?
Its value is 2500 ppm.

What about the “MIC values Candida albicans” value (Candida albicans) of the same compound?
The value was 2000 ppm.

Which “MIC values Staphylococcus aureus” value (Staphylococcus aureus; DIN 58940) does the source give for `OCC(O)COCc1ccccc1` (stereo not drawn) [Benzylglycerin] here?
Its value is 20000 ppm.

And the “MIC values Pseudomonas aeruginosa” value (Pseudomonas aeruginosa; DIN 58940)?
The value was 20000 ppm.

What about the “MIC values Aspergillus brasiliensis” value (Aspergillus brasiliensis; DIN 58940) of the same compound?
Its value is 20000 ppm.

And the “MIC values Escherichia coli” value (Escherichia coli; DIN 58940)?
Its value is 10000 ppm.

What about the “MIC values Candida albicans” value (Candida albicans; DIN 58940) of the same compound?
The value was 20000 ppm.

With `CCCCCCCOCC(O)CO` (stereo not drawn) [3HOPD, 3-heptyloxy-1,2-propanediol] as the compound, how does the Colony counts (A. brasiliensis; [3]) read?
Its Colony counts is 220.000 cfu/g formulation.

What about the Relative colony counts (A. brasiliensis; [3]) of the same compound?
The Relative colony counts was 1.0000.

And the Colony counts (A. brasiliensis; [4])?
Its Colony counts is 320.000 cfu/g formulation.

What about the Relative colony counts (A. brasiliensis; [4]) of the same compound?
The Relative colony counts was 1.4545.

And the Colony counts (A. brasiliensis; [5])?
The Colony counts was 340.000 cfu/g formulation.

What about the Relative colony counts (A. brasiliensis; [5]) of the same compound?
Its Relative colony counts is 1.5455.

What about the Colony counts (A. brasiliensis; [6]) of the same compound?
The Colony counts was 300.000 cfu/g formulation.

What about the Relative colony counts (A. brasiliensis; [6]) of the same compound?
The Relative colony counts was 1.3636.

What about the Colony counts (A. brasiliensis; [7]) of the same compound?
The Colony counts was 170.000 cfu/g formulation.

What about the Relative colony counts (A. brasiliensis; [7]) of the same compound?
The Relative colony counts was 0.7727.

What does the source list for `OCCCc1ccccc1` [3-Phenylpropanol]?
MIC (Staphylococcus aureus; DIN 58940): 2000 µg/mL; MIC (Pseudomonas aeruginosa; DIN 58940): 2000 µg/mL; MIC (Aspergillus brasiliensis; DIN 58940): 2000 µg/mL; MIC (Escherichia coli; DIN 58940): 2000 µg/mL; MIC (Candida albicans; DIN 58940): 5000 µg/mL

What does the source list for `CCCCCCC(O)CO` (stereo not drawn) [1,2-Octanediol]?
MIC (Staphylococcus aureus; DIN 58940): 5000 µg/mL; MIC (Pseudomonas aeruginosa; DIN 58940): 5000 µg/mL; MIC (Aspergillus brasiliensis; DIN 58940): 1000 µg/mL; MIC (Escherichia coli; DIN 58940): 2500 µg/mL; MIC (Candida albicans; DIN 58940): 5000 µg/mL

What does the source list for `CCCCCCCCOCC(O)CO` (stereo not drawn) [Octylglycerin]?
MIC values Staphylococcus aureus (Staphylococcus aureus; DIN 58940): 1000 ppm; MIC values Pseudomonas aeruginosa (Pseudomonas aeruginosa; DIN 58940): >2000 ppm; MIC values Aspergillus brasiliensis (Aspergillus brasiliensis; DIN 58940): 500 ppm; MIC values Escherichia coli (Escherichia coli; DIN 58940): 1000 ppm; MIC values Candida albicans (Candida albicans; DIN 58940): 1000 ppm

With `CCCCCCOC[C@@H](O)CO` [Hexylglycerin] as the compound, how does the “MIC values Staphylococcus aureus” value (Staphylococcus aureus; DIN 58940) read?
Its value is 6000 ppm.

And the “MIC values Pseudomonas aeruginosa” value (Pseudomonas aeruginosa; DIN 58940)?
The value was 6000 ppm.

And the “MIC values Aspergillus brasiliensis” value (Aspergillus brasiliensis; DIN 58940)?
The value was 4000 ppm.

And the “MIC values Escherichia coli” value (Escherichia coli; DIN 58940)?
The value was 4000 ppm.

And the “MIC values Candida albicans” value (Candida albicans; DIN 58940)?
The value was 6000 ppm.

With `CCCCCCCOCC(O)CO` (stereo not drawn) [Heptylglycerin] as the compound, how does the “MIC values Staphylococcus aureus” value (Staphylococcus aureus; DIN 58940) read?
The value was 2500 ppm.

And the “MIC values Pseudomonas aeruginosa” value (Pseudomonas aeruginosa; DIN 58940)?
The value was 5000 ppm.

And the “MIC values Aspergillus brasiliensis” value (Aspergillus brasiliensis; DIN 58940)?
Its value is 1000 ppm.

What about the “MIC values Escherichia coli” value (Escherichia coli; DIN 58940) of the same compound?
Its value is 2000 ppm.

What about the “MIC values Candida albicans” value (Candida albicans; DIN 58940) of the same compound?
The value was 2000 ppm.
